According to US20220162167A1, “SUBSTITUTED BICYCLIC AND TETRACYCLIC QUINONES AND USE THEREOF AS ANTI-CANCER AGENTS” (THE REGENTS OF THE UNIVERSITY OF MICHIGAN, priority 2019, published 2022):

Experiments:
Assay type in all cases: cell-based
[1] = system: K-562; assay: NCI60 growth inhibition, K-562; details: Leukemia
Outline: (§1)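 Selected compounds were submitted to the NCI and profiled in its 60-line tumour cell panel. Inhibition of cell growth was scored per line.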

[2] = system: ACHN; assay: NCI60 growth inhibition, ACHN; details: Renal Cancer
Outline: as §1

[3] = system: UACC-257; assay: NCI60 growth inhibition, UACC-257; details: Melanoma; note: test concentration or dose not given here
Outline: as §1

[4] = system: UACC-62; assay: NCI60 growth inhibition, UACC-62; details: Melanoma; note: test concentration or dose not given here
Outline: as §1

[5] = system: KM12; assay: NCI60 growth inhibition, KM12; details: Colon Cancer; note: test concentration or dose not given here
Outline: as §1

[6] = system: NCI-H322M; assay: NCI60 growth inhibition, NCI-H322M; details: Non-Small Cell Lung Cancer
Outline: as §1

[7] = system: MDA-MB-468; assay: NCI60 growth inhibition, MDA-MB-468; details: Breast Cancer; note: test concentration or dose not given here
Outline: as §1

[8] = system: NCI-H460; assay: NCI60 growth inhibition, NCI-H460; details: Non-Small Cell Lung Cancer
Outline: as §1

[9] = system: MCF7; assay: NCI60 growth inhibition, MCF7; details: Breast Cancer
Outline: as §1

[10] = system: HOP-92; assay: NCI60 growth inhibition, HOP-92; details: Non-Small Cell Lung Cancer
Outline: as §1

[11] = system: RXF 393; assay: NCI60 growth inhibition, RXF 393; details: Renal Cancer
Description: (§2) Representative compounds were tested in 60 cell lines (NCI60) at the National Cancer Institute, Developmental Therapeutics Program.
(§3) Representative compounds were tested in a panel of 60 cancer cells (NCI 60) at the National Cancer Institute. Growth inhibition are shown in table 2, table 3, table 4, table 5, and FIG. 1, FIG. 2, FIG. 3, FIG. 4, FIG. 5.

[12] = system: IGROV1; assay: NCI60 growth inhibition, IGROV1; details: Ovarian Cancer
Outline: as §1

[13] = system: T-47D; assay: NCI60 growth inhibition, T-47D; details: Breast Cancer
Outline: as §1

[14] = system: MALME-3M; assay: NCI60 growth inhibition, MALME-3M; details: Melanoma
Outline: as §1

[15] = system: M14; assay: NCI60 growth inhibition, M14; details: Melanoma
Outline: as §1

[16] = system: TK-10; assay: NCI60 growth inhibition, TK-10; details: Renal Cancer
Outline: as §1

[17] = system: CCRF-CEM; assay: NCI60 growth inhibition, CCRF-CEM; details: Leukemia
Outline: as §1

[18] = system: SNB-19; assay: NCI60 growth inhibition, SNB-19; details: CNS Cancer; note: test concentration or dose not given here
Outline: as §1

[19] = system: BT-549; assay: NCI60 growth inhibition, BT-549; details: Breast Cancer
Description: as §2, §3

[20] = system: HL-60(TB); assay: NCI60 growth inhibition, HL-60(TB); details: Leukemia
Outline: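 Representative compounds go through the National Cancer Institute's 60-cell cancer panel, where growth inhibition of each line is recorded.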

[21] = system: SF-539; assay: NCI60 growth inhibition, SF-539; details: CNS Cancer
Outline: as §1

[22] = system: HCT-116; assay: NCI60 growth inhibition, HCT-116; details: Colon Cancer
Outline: as §1

[23] = system: NCI-H226; assay: NCI60 growth inhibition, NCI-H226; details: Non-Small Cell Lung Cancer; note: test concentration or dose not given here
Outline: as §1

[24] = system: U251; assay: NCI60 growth inhibition, U251; details: CNS Cancer
Outline: as §1

[25] = system: LOX IMVI; assay: NCI60 growth inhibition, LOX IMVI; details: Melanoma
Outline: as §1

[26] = system: A549/ATCC; assay: NCI60 growth inhibition, A549/ATCC; details: Non-Small Cell Lung Cancer
Outline: as §1

[27] = system: NCI-H522; assay: NCI60 growth inhibition, NCI-H522; details: Non-Small Cell Lung Cancer
Outline: as §1

[28] = system: DU-145; assay: NCI60 growth inhibition, DU-145; details: Prostate Cancer
Outline: as §1

[29] = system: HCT-15; assay: NCI60 growth inhibition, HCT-15; details: Colon Cancer; note: test concentration or dose not given here
Outline: as §1

[30] = system: HCC-2998; assay: NCI60 growth inhibition, HCC-2998; details: Colon Cancer
Outline: as §1

[31] = system: NCI/ADR-RES; assay: NCI60 growth inhibition, NCI/ADR-RES; details: Ovarian Cancer
Outline: as §1

[32] = system: OVCAR-3; assay: NCI60 growth inhibition, OVCAR-3; details: Ovarian Cancer
Outline: as §1

[33] = system: SNB-75; assay: NCI60 growth inhibition, SNB-75; details: CNS Cancer; note: test concentration or dose not given here
Outline: as §1

[34] = system: HOP-62; assay: NCI60 growth inhibition, HOP-62; details: Non-Small Cell Lung Cancer; note: test concentration or dose not given here
Outline: as §1

[35] = system: MDA-MB-231/ATCC; assay: NCI60 growth inhibition, MDA-MB-231/ATCC; details: Breast Cancer
Outline: as §1

[36] = system: 786-0; assay: NCI60 growth inhibition, 786-0; details: Renal Cancer
Outline: as §1

[37] = system: HT29; assay: NCI60 growth inhibition, HT29; details: Colon Cancer
Outline: as §1

[38] = system: MOLT-4; assay: NCI60 growth inhibition, MOLT-4; details: Leukemia
Outline: as §1

[39] = system: SF-295; assay: NCI60 growth inhibition, SF-295; details: CNS Cancer; note: test concentration or dose not given here
Outline: as §1

[40] = system: NCI-H23; assay: NCI60 growth inhibition, NCI-H23; details: Non-Small Cell Lung Cancer
Outline: as §1

[41] = system: SK-MEL-2; assay: NCI60 growth inhibition, SK-MEL-2; details: Melanoma; note: test concentration or dose not given here
Outline: as §1

[42] = system: SK-MEL-28; assay: NCI60 growth inhibition, SK-MEL-28; details: Melanoma
Outline: as §1

[43] = system: EKVX; assay: NCI60 growth inhibition, EKVX; details: Non-Small Cell Lung Cancer
Outline: as §1

[44] = system: UO-31; assay: NCI60 growth inhibition, UO-31; details: Renal Cancer
Outline: as §1

[45] = system: OVCAR-5; assay: NCI60 growth inhibition, OVCAR-5; details: Ovarian Cancer
Outline: as §1

[46] = system: OVCAR-4; assay: NCI60 growth inhibition, OVCAR-4; details: Ovarian Cancer; note: test concentration or dose not given here
Outline: as §1

[47] = system: CAKI-1; assay: NCI60 growth inhibition, CAKI-1; details: Renal Cancer; note: test concentration or dose not given here
Outline: as §1

[48] = system: COLO 205; assay: NCI60 growth inhibition, COLO 205; details: Colon Cancer
Outline: as §1

[49] = system: SK-OV-3; assay: NCI60 growth inhibition, SK-OV-3; details: Ovarian Cancer
Outline: as §1

[50] = system: MDA-MB-435; assay: NCI60 growth inhibition, MDA-MB-435; details: Melanoma
Outline: as §1

[51] = system: SK-MEL-5; assay: NCI60 growth inhibition, SK-MEL-5; details: Melanoma
Outline: as §1

[52] = system: HS 578T; assay: NCI60 growth inhibition, HS 578T; details: Breast Cancer
Outline: as §1

[53] = system: SR; assay: NCI60 growth inhibition, SR; details: Leukemia
Outline: as §1

[54] = system: A498; assay: NCI60 growth inhibition, A498; details: Renal Cancer; note: test concentration or dose not given here
Outline: as §1

[55] = system: SN12C; assay: NCI60 growth inhibition, SN12C; details: Renal Cancer
Outline: as §1

[56] = system: RPMI-8226; assay: NCI60 growth inhibition, RPMI-8226; details: Leukemia
Outline: as §1

[57] = system: PC-3; assay: NCI60 growth inhibition, PC-3; details: Prostate Cancer
Outline: as §1

[58] = system: SW-620; assay: NCI60 growth inhibition, SW-620; details: Colon Cancer; note: test concentration or dose not given here
Outline: as §1

[59] = system: SF-268; assay: NCI60 growth inhibition, SF-268; details: CNS Cancer; note: test concentration or dose not given here
Outline: as §1

## CN1CCN(c2ccc3nc4c(nc3c2C(F)(F)F)C(=O)c2ncccc2C4=O)CC1 [Compound 50, 9-(4-methylpiperazin-1-yl)-10-(trifluoromethyl)pyrido[2,3-b]phenazine-5,12-dione]
[1]
  Growth inhibition (% control) GIPRCNT: −6.717 % control
[2]
  Growth inhibition (% control) GIPRCNT: −44.1558 % control
[3]
  Growth inhibition (% control) GIPRCNT: −82.2969 % control
[4]
  Growth inhibition (% control) GIPRCNT: −82.4675 % control
[5]
  Growth inhibition (% control) GIPRCNT: 13 % control
[6]
  Growth inhibition (% control) GIPRCNT: 36.63 % control
[7]
  Growth inhibition (% control) GIPRCNT: −62.4106 % control
[8]
  Growth inhibition (% control) GIPRCNT: −56.5637 % control
[9]
  Growth inhibition (% control) GIPRCNT: −57.016 % control
[10]
  Growth inhibition (% control) GIPRCNT: 27.5 % control
[11]
  Growth inhibition (% control) GIPRCNT: 38.36 % control
[12]
  Growth inhibition (% control) GIPRCNT: −32.57 % control
[13]
  Growth inhibition (% control) GIPRCNT: −28.3961 % control
[14]
  Growth inhibition (% control) GIPRCNT: −99.1953 % control
[15]
  Growth inhibition (% control) GIPRCNT: −89.6374 % control
[16]
  Growth inhibition (% control) GIPRCNT: 80.29 % control
[17]
  Growth inhibition (% control) GIPRCNT: 5.713 % control
[18]
  Growth inhibition (% control) GIPRCNT: 17.8598 % control
[19]
  Growth inhibition (% control) GIPRCNT: −97.0139 % control
[20]
  Growth inhibition (% control) GIPRCNT: −50.3957 % control
[21]
  Growth inhibition (% control) GIPRCNT: −52.4375 % control
[22]
  Growth inhibition (% control) GIPRCNT: 0.9838 % control
[23]
  Growth inhibition (% control) GIPRCNT: −78.8735 % control
[24]
  Growth inhibition (% control) GIPRCNT: 0.9108 % control
[25]
  Growth inhibition (% control) GIPRCNT: −50.1492 % control
[26]
  Growth inhibition (% control) GIPRCNT: −36.1751 % control
[27]
  Growth inhibition (% control) GIPRCNT: −67.5222 % control
[28]
  Growth inhibition (% control) GIPRCNT: −85.7143 % control
[29]
  Growth inhibition (% control) GIPRCNT: −47.4718 % control
[30]
  Growth inhibition (% control) GIPRCNT: −26.9174 % control
[31]
  Growth inhibition (% control) GIPRCNT: 10.14 % control
[32]
  Growth inhibition (% control) GIPRCNT: −27.9399 % control
[33]
  Growth inhibition (% control) GIPRCNT: 5.296 % control
[34]
  Growth inhibition (% control) GIPRCNT: −63.3298 % control
[35]
  Growth inhibition (% control) GIPRCNT: −5.992 % control
[36]
  Growth inhibition (% control) GIPRCNT: 36.69 % control
[37]
  Growth inhibition (% control) GIPRCNT: −55.5144 % control
[38]
  Growth inhibition (% control) GIPRCNT: −36.4229 % control
[39]
  Growth inhibition (% control) GIPRCNT: −61.5894 % control
[40]
  Growth inhibition (% control) GIPRCNT: −39.656 % control
[41]
  Growth inhibition (% control) GIPRCNT: −34.5495 % control
[42]
  Growth inhibition (% control) GIPRCNT: 5.495 % control
[43]
  Growth inhibition (% control) GIPRCNT: 5.133 % control
[44]
  Growth inhibition (% control) GIPRCNT: −19.0631 % control
[45]
  Growth inhibition (% control) GIPRCNT: −90.4043 % control
[46]
  Growth inhibition (% control) GIPRCNT: −91.1398 % control
[47]
  Growth inhibition (% control) GIPRCNT: 33.14 % control
[48]
  Growth inhibition (% control) GIPRCNT: −94.9856 % control
[49]
  Growth inhibition (% control) GIPRCNT: 29.68 % control
[50]
  Growth inhibition (% control) GIPRCNT: −91.762 % control
[51]
  Growth inhibition (% control) GIPRCNT: −99.7024 % control
[52]
  Growth inhibition (% control) GIPRCNT: −15.9764 % control
[53]
  Growth inhibition (% control) GIPRCNT: −27.1607 % control
[54]
  Growth inhibition (% control) GIPRCNT: −21.1398 % control
[55]
  Growth inhibition (% control) GIPRCNT: −95.418 % control
[56]
  Growth inhibition (% control) GIPRCNT: 27.57 % control
[57]
  Growth inhibition (% control) GIPRCNT: 8.007 % control
[58]
  Growth inhibition (% control) GIPRCNT: 4.709 % control
[59]
  Growth inhibition (% control) GIPRCNT: 1.957 % control
